From BindingDB's records for doi:10.1021/acs.jmedchem.7b01709 (Kobe Gakuin University, 2018)

Legend:
[1] = Inhibition of protease L10F/V32I/M46I/I47V/Q58E/I84V mutant in HIV1 A17 infected in human MT4 cells assessed as reduction in virus-induced cytopathic effect after 5 days by MTT assay
[2] = Inhibition of DRV-resistant protease V32I/L33F/I54M/V82I mutant in HIV1 transfected in 293T cells after 48 hrs by lentiviral vector-based luciferase reporter gene assay
[3] = Inhibition of DRV-resistant protease V32I/L33F/I54M/I84V mutant in HIV1 transfected in 293T cells after 48 hrs by lentiviral vector-based luciferase reporter gene assay

Row | Compound | EC50 [1] [nM] | EC50 [2] [nM] | EC50 [3] [nM]
1 | Cc1cccc(C)c1CNC(=O)[C@H]1N(C(=O)[C@@H](O)[C@H](Cc2ccccc2)NC(=O)[C@@H](NC(=O)COc2cccc(Nc3ccccc3)c2)[C@H]2CCOC2)CSC1(C)C | 226 | – | –
2 | Cc1cccc(C)c1CNC(=O)[C@H]1N(C(=O)[C@@H](O)[C@H](Cc2ccccc2)NC(=O)[C@H](CC(N)=O)NC(=O)c2cc3ccccc3o2)CSC1(C)C | 61 | – | –
3 | COc1cccc2cc(C(=O)N[C@H](C(=O)N[C@@H](Cc3ccccc3)[C@H](O)C(=O)N3CSC(C)(C)[C@H]3C(=O)NCc3c(C)cccc3C)[C@H]3CCOC3)oc12 | 25 | 0.3 | 1.2
4 | COc1cccc2cc(C(=O)N[C@H](C(=O)N[C@@H](Cc3ccccc3)[C@H](O)C(=O)N3CSC(C)(C)[C@H]3C(=O)NCc3c(C)cccc3C)C(C)C)oc12 | 309 | – | –
5 | Cc1cccc(C)c1CNC(=O)[C@H]1N(C(=O)[C@@H](O)[C@H](Cc2ccccc2)NC(=O)[C@@H](NC(=O)c2cc3ccccc3o2)[C@H]2CCOC2)CSC1(C)C | 678 | – | –
6 | COc1cccc2cc(C(=O)N[C@@H](CC(N)=O)C(=O)N[C@@H](Cc3ccccc3)[C@H](O)C(=O)N3CSC(C)(C)[C@H]3C(=O)NCc3c(C)cccc3C)oc12 | 84 | – | –
7 | Cc1ccccc1CNC(=O)[C@H]1N(C(=O)[C@@H](O)[C@H](Cc2ccccc2)NC(=O)[C@@H](NC(=O)c2cnc3ccccc3n2)[C@H]2CCOC2)CSC1(C)C | 95 | – | –
8 | Cc1cccc(C)c1CNC(=O)[C@H]1N(C(=O)[C@@H](O)[C@H](Cc2ccccc2)NC(=O)[C@@H](NC(=O)COc2cccc(N(C)C)c2)[C@H]2CCOC2)CSC1(C)C | 165 | – | –
9 | Cc1ccccc1CNC(=O)[C@H]1N(C(=O)[C@@H](O)[C@H](Cc2ccccc2)NC(=O)c2cccc(O)c2C)CSC1(C)C [AG1776] | 2730 | – | –
10 | Cc1cccc(C)c1CNC(=O)[C@H]1N(C(=O)[C@@H](O)[C@H](Cc2ccccc2)NC(=O)[C@@H](NC(=O)c2cc3ccccc3o2)C(C)C)CSC1(C)C | 1100 | – | –
